Assay results reported in article PMC7894426, “Influence of verapamil on the pharmacokinetics of rotundic acid in rats and its potential mechanism” (Pharmaceutical Biology, 2021).
Where two headings read alike, the source gives them in different places.

Experiments:
CYP2C9 = target: T1, CYP2C9 (Homo sapiens, UniProt P11712); experiment: Metabolic depletion of RA by rhCYP2C9; type: in vitro ADME; conditions: rhCYP2C9 25 pM, RA 2 µM, 30 min
T1 construct: purchased Research Institute for Liver Disease (Shanghai) Co., Ltd
Procedure: (§1) The metabolic stability of RA was evaluated against five rhCYPs (1A2, 2C8, 2C9, 2D6 and 3A4). Incubation was taken place in 0.1 M sodium phosphate buffer (pH 7.4) containing 5 mM MgCl2, 1 mM NADPH, and 25 pM rhCYP enzyme protein at 37 °C in a total volume of 1 mL. After pre-incubated for 5 min, the reactions were started by the addition of RA methanol solution (final concentration of 2 µM). Aliquots of 50 µL incubation solution were collected from the reaction at 0, 5, 10, 20 and 30 min, and quenched with 50 µL ice-cold methanol (containing 0.5% formic acid) and 100 µL ice-cold acetonitrile containing IS (10 ng/mL). The heat-inactivated rhCYP3A4 were used as negative controls. All reactions were conducted in triplicate, followed by LC-MS/MS analysis. Results presented in percentage of drug remaining in incubation starting at 100% at time zero.

CYP3A4 = target: T2, CYP3A4 (Homo sapiens, UniProt P08684); experiment: Metabolic depletion of RA by rhCYP3A4; type: in vitro ADME
T2 construct: purchased Research Institute for Liver Disease (Shanghai) Co., Ltd
Procedure: as §1

[1] = Bidirectional transport across Caco-2 cell monolayer; type: in vitro ADME, human; conditions: human, pH 7.4, Caco-2, 25 µM RA, without verapamil
Procedure: (§2) The qualified monolayers were used for transport studies. […] Each experiment was carried out in triplicate.

CYP1A2 = target: T3, CYP1A2 (Homo sapiens, UniProt P05177); experiment: Metabolic depletion of RA by rhCYP1A2; type: in vitro ADME; conditions: rhCYP1A2 25 pM, RA 2 µM, 30 min
T3 construct: purchased Research Institute for Liver Disease (Shanghai) Co., Ltd
T3 sequence (P05177 1-516): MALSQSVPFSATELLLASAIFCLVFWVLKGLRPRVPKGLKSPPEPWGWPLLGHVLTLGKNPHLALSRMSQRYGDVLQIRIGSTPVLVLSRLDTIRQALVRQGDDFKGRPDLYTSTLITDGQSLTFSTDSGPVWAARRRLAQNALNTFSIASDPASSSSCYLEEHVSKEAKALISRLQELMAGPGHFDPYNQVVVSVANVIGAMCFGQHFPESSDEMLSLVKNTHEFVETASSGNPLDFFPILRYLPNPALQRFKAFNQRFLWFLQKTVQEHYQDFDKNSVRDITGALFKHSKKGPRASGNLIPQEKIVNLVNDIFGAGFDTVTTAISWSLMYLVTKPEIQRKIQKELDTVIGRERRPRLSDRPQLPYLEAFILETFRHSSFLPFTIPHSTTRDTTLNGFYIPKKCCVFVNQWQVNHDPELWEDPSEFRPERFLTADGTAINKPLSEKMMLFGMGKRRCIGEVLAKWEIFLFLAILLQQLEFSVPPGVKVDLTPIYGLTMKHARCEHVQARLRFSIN
Procedure: as §1

[2] = Bidirectional transport across MDCKII-Mock cell monolayers; type: in vitro ADME, canine; conditions: dog, MDCK, MDCKII-Mock, 20 min; for efflux ratio at 20 min: read-out: RE (efflux ratio)
Procedure: as §2

rat liver microsomes = experiment: Metabolic stability in rat liver microsomes with or without verapamil; type: in vitro ADME; conditions: heat-inactivated microsomes, RA 2 µM
Procedure: (§3) Low metabolic stability is a major barrier to further improve the oral bioavailability of the herb drugs. To gauge the medicinal chemistry value of RA, we evaluated their metabolic stability in RLMs with or without verapamil. The in vitro microsomal stability assay was conducted in triplicate in rat liver microsomal systems, which were supplemented with NADPH as a cofactor. The assay conditions and reaction mixtures were similar to the previous report with minor modifications (Li et al. [2016]; Sun et al. [2019]). Briefly, the incubation system (final volume of 1 mL) consisted of 1 mg/mL rat liver microsomal protein, 1 mM NADPH, and 5 mM MgCl2 in 0.1 M sodium phosphate buffer (pH 7.4). The incubation system was pre-incubated at 37 °C for 15 min and initiated by adding RA methanol solution (final concentration of 2 µM). The effects of verapamil on the metabolic stability of RA were investigated by adding 50 µM of verapamil (Ma et al. [2000]; Lee and Kim [2013]; Dinger et al. [2014]) to RLMs and pre-incubating for 15 min at 37 °C. The final concentration of methanol (used for dissolving the substrate and inhibitor) was lower than 1% (v/v). Negative control was performed in parallel in a heat-inactivated liver microsomes incubation system to measure any chemical instability or non-enzymatic degradation. Aliquots of 50 µL incubation solution were collected from the reaction at 0, 5, 15, 30 and 60 min, and quenched with 50 µL ice-cold methanol (containing 0.5% formic acid) and 100 µL ice-cold acetonitrile containing IS (10 ng/mL). The samples were then vortexed for 1 min and centrifuged at 12,000 rpm for 10 min at 4 °C. The supernatants were collected and analyzed by LC-MS/MS.
(§4) Substrate depletion and in vitro half-life (t1/2) are common descriptors for metabolic stability. The t1/2 is calculated by the substrate disappearance. The obtained concentration value for time t is divided by the value for time zero and then multiplied by a factor of 100, which represents the ‘% Remaining’ to provide the relative remaining substrate level for the time t. The natural logarithm (ln) of the ‘% Remaining’ of RA was plotted against the incubation time (in min) using linear regression.
(§5) Where, ke, the elimination rate constant, is the slope of a linear regression curve in a semilog plot. Data were collected from triplicate experiments.

[3] = as above; type: in vitro ADME; conditions: rat, liver microsomes, RLMs 1 mg/mL, RA 2 µM; for k el at 2 µM: read-out: ke (converted)
Procedure: as §3, §4, §5

[4] = pH 7.4, with verapamil 50 µM, + 50 µM verapamil
[5] = pH 7.4, with verapamil 50 µM, pre-treatment of verapamil 50 µM

T2 sequence (P08684 whole entry): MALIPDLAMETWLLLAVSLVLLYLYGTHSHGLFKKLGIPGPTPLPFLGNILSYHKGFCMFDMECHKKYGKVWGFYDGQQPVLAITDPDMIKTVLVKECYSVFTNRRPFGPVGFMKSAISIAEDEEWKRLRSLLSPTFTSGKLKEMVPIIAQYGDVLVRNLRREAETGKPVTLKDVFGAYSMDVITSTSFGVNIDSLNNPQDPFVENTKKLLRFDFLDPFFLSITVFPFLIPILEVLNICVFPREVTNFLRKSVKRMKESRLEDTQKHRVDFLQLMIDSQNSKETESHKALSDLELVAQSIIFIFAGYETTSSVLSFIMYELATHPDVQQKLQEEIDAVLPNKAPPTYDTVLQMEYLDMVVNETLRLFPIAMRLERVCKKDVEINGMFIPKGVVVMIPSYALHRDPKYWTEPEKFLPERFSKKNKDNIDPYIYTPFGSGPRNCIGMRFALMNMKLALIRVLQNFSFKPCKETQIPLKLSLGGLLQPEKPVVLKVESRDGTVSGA
T1 sequence (P11712 whole entry): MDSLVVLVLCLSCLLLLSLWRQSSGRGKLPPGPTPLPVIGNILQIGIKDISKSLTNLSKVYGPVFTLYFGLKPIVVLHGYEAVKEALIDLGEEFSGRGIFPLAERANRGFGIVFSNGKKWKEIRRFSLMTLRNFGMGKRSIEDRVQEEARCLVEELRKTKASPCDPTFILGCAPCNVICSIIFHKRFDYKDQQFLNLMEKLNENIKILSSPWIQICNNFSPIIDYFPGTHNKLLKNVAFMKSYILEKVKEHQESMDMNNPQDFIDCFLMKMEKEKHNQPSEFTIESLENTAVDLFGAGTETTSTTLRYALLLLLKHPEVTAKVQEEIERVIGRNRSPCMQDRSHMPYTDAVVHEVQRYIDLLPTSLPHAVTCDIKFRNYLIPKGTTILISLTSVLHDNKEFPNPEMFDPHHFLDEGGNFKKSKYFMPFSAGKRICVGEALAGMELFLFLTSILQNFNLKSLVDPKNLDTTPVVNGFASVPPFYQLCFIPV

RA converted (CYP2C9): 41.4% | degradation in negative control (CYP3A4; heat-inactivated rhCYP3A4, RA 2 µM): No obvious degradation | RA converted (CYP3A4; rhCYP3A4 25 pM, RA 2 µM, 30 min): 88.2% | efflux ratio at 25 µM ([1]; 10–60 min, read-out: Papp (BL→AP) relative to Papp (AP→BL)): 2 | Papp A→B at 10 min, 25 µM ([1]; 10 min): 0.468 ± 0.0625 ×10⁻⁶ cm/s | Papp B→A at 10 min, 25 µM ([1]; 10 min): 3.25 ± 0.35 ×10⁻⁶ cm/s | efflux ratio at 10 min, 25 µM ([1]; 10 min, read-out: RE (efflux ratio)): 6.93 | Papp A→B at 20 min, 25 µM ([1]; 20 min): 0.776 ± 0.128 ×10⁻⁶ cm/s | Papp B→A at 20 min, 25 µM ([1]; 20 min): 5.45 ± 0.806 ×10⁻⁶ cm/s | efflux ratio at 20 min, 25 µM ([1]; 20 min, read-out: RE (efflux ratio)): 7.02 | Papp A→B at 40 min, 25 µM ([1]; 40 min): 2.8 ± 0.467 ×10⁻⁶ cm/s | Papp B→A at 40 min, 25 µM ([1]; 40 min): 7.13 ± 0.36 ×10⁻⁶ cm/s | efflux ratio at 40 min, 25 µM ([1]; 40 min, read-out: RE (efflux ratio)): 2.55 | Papp A→B at 60 min, 25 µM ([1]; 60 min): 2.84 ± 0.441 ×10⁻⁶ cm/s | Papp B→A at 60 min, 25 µM ([1]; 60 min): 6.56 ± 0.941 ×10⁻⁶ cm/s | efflux ratio at 60 min, 25 µM ([1]; 60 min, read-out: RE (efflux ratio)): 2.31 | metabolism of RA (substrate depletion) (CYP1A2): hardly metabolized | Papp A→B at 20 min [2, 4]: 6.52 ± 0.864 ×10⁻⁶ cm/s | Papp B→A at 20 min [2, 4]: 6.23 ± 0.895 ×10⁻⁶ cm/s | efflux ratio at 20 min [2, 4]: 0.955 | Papp A→B at 20 min ([2]; pH 7.4, without verapamil): 6.07 ± 0.886 ×10⁻⁶ cm/s | Papp B→A at 20 min ([2]; pH 7.4, without verapamil): 6.72 ± 2.03 ×10⁻⁶ cm/s | efflux ratio at 20 min ([2]; pH 7.4, without verapamil): 1.11 | degradation in negative control (rat liver microsomes): No obvious degradation | half-life at 2 µM [3, 5]: 58.2 ± 5.17 min | microsomal CLint at 2 µM [3, 5]: 12 ± 1.06 µL/min/mg | k el at 2 µM [3, 5]: 0.0002 s⁻¹ | half-life at 2 µM ([3]; pH 7.4, control): 14.3 ± 0.941 min | microsomal CLint at 2 µM ([3]; pH 7.4, control): 48.5 ± 3.18 µL/min/mg | k el at 2 µM ([3]; pH 7.4, control): 0.000808 s⁻¹
SMILES: C[C@@H]1CC[C@]2(C(=O)O)CC[C@]3(C)C(=CC[C@@H]4[C@@]5(C)CC[C@H](O)[C@@](C)(CO)[C@@H]5CC[C@]43C)[C@@H]2[C@]1(C)O [RA, Rotundic acid]
